According to patent publication US20060210478A1, “Steady state perfusion methods” (priority 2005, published 2006):

Legend:
domestic pig [1] = details: pig with 80-90% LCX stenosis, 0.05 mmol/kg i.v.
Source text: A domestic pig (approx 50 kg B.W.) is anesthetized and intubated. The animal undergoes surgical intervention to partially occlude the distal portion of the left circumflex coronary artery (LCX). A calibrated angioplasty balloon is delivered by catheter, guided by X-ray fluoroscopy, from the femoral artery to the heart. It is advanced into the left circumflex coronary artery and inflated to create the equivalent of an 80-90% stenosis. The balloon catheter will remain inflated and at a constant inflation pressure for the duration of the imaging procedure, to simulate a static lesion and stenosis in the coronary artery.
The pig is then transported to the MRI suite and remains under general anesthesia and intubated for the duration of the imaging examination. Sufficient MRI scout scans to plan the myocardial imaging are acquired. Then 0.05 mmol/kg of MS-325 is administered as a single intraveneous injection. Enough time (ca. 10 minutes) for the agent to achieve equilibrium in the blood elapses before imaging commences.
Perfusion imaging is performed using a saturation-recovery gradient echo methods in order to sensitize the MRI to the lowered T1 of the imaging agent. Three short-axis slices (7.5 mm, with 7.5 mm slice separations) are acquired, so that 16 of the 17 AHA/ACC myocardial segments can be visualized. […]

domestic pig [2] = details: pig with 80-90% LCX stenosis; 0.05 mmol/kg i.v.; 0.25 mg/kg/min adenosine; confirmed by fluorescent microspheres post-mortem
Source text: (§1) A domestic pig (approx 60 kg B.W.) is anesthetized and intubated. The animal undergoes surgical intervention to partially occlude the distal portion of the left circumflex coronary artery (LCX). A calibrated angioplasty balloon is delivered by catheter, guided by X-ray fluoroscopy, from the femoral artery to the heart. It is advanced into the Left Circumflex coronary artery and inflated to create the equivalent of an 80-90% stenosis. The balloon catheter will remain inflated and at a constant inflation pressure for the duration of the imaging procedure, to simulate a static lesion and stenosis in the coronary artery.
The pig is then transported to the MRI suite and remains under general anesthesia and intubated for the duration of the imaging examination. Sufficient MRI scout scans to plan the myocardial imaging are aquired. […] Enough time (ca. 10 minutes) for the agent to achieve equilibrium in the blood elapses before perfusion imaging commences.
Perfusion imaging is performed using a gradient echo method in order to sensitize the MRI to the lowered T1 of the imaging agent (TR=3.2 ms, FA=12°). Three short-axis 10 mm slices are acquired, so that 16 of the 17 AHA/ACC myocardial segments can be visualized. In this implementation, cardiac-triggering is employed to control heart motion and breathing is suspended to eliminate diaphragmatic motion. […]

domestic pig [3] = details: pig with 80-90% LCX stenosis; 0.05 mmol/kg i.v.; 0.25 mg/kg/min adenosine; confirmed by fluorescent microspheres post-mortem; remark: listed apart in the source
Source text: as §1
The pig is then transported to the MRI suite and remains under general anesthesia and intubated for the duration of the imaging examination. Sufficient MRI scout scans to plan the myocardial imaging are aquired. 0.05 mmol/kg of MS-325 is administered as a single intraveneous injection. Enough time (ca. 10 minutes) for the agent to achieve equilibrium in the blood elapses before perfusion imaging.
Perfusion imaging is performed using a gradient echo method in order to sensitize the MRI to the lowered T1 of the imaging agent (TR=5.0 ms, FA=12°). Three 10 mm short-axis slices are acquired, so that 16 of the 17 AHA/ACC myocardial segments can be visualized. […]

## O=C([O-])CN(CCN(CC(=O)[O-])C[C@H](COP(=O)([O-])OC1CCC(c2ccccc2)(c2ccccc2)CC1)N(CC(=O)[O-])CC(=O)[O-])CC(=O)[O-].[Gd+3].[H+].[H+].[H+] [MS-325]
Domestic pig [1]; after 5 minutes of 0.25 mg/kg/min adenosine infusion
  Corresponding image during stress: a greater degree of negative contrast with the remaining myocardial wall
Domestic pig [1]; imaging ca. 10 minutes after injection, before adenosine
  Analysis of MR images (perfusion imaging at rest): a suspicious hypo-intense region in the anterior wall of the left ventrical
Domestic pig [2]
  Analysis of MR images during vasodilatory stress: a hypo-intense region in the wall of the left ventricle
Domestic pig [3]
  Analysis of MR images during adenosine stress: a hypo-intense region in the myocardial wall
